Experimental data: ChEMBL document CHEMBL1152560, “Substituted 2-arylbenzothiazoles as kinase inhibitors: hit-to-lead optimization” (Bioorg Med Chem, 2009)

Tests used:
[1] = biological target: T1, Interleukin-1 receptor-associated kinase 4 (Homo sapiens) (UniProt Q9NWZ3); assay: Residual activity of IRAK4 at 10 uM by microplate scintillation counting
T1 sequence (whole entry): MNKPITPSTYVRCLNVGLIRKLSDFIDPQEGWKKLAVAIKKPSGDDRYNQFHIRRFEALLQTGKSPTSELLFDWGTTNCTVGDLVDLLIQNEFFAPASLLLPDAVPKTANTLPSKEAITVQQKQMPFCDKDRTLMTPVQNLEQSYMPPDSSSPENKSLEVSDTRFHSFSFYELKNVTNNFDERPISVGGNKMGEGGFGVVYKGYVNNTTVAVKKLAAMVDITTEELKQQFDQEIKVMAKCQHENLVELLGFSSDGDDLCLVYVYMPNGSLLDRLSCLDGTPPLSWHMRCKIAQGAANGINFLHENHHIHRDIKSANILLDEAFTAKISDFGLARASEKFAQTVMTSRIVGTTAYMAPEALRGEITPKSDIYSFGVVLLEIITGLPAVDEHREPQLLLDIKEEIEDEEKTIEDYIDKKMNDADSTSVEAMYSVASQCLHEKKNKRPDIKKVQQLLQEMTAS

[2] = biological target: Tyrosine-protein kinase CSK (Homo sapiens) (UniProt P41240); assay: Residual activity of CSK at 10 uM by microplate scintillation counting
[3] = biological target: Ephrin type-A receptor 4 (Homo sapiens) (UniProt P54764); assay: Residual activity of EPHA4 at 1 uM by microplate scintillation counting
[4] = biological target: Tyrosine-protein kinase FRK (Homo sapiens) (UniProt P42685); assay: Residual activity of FRK at 1 uM by microplate scintillation counting
[5] = biological target: Homeodomain-interacting protein kinase 1 (Homo sapiens) (UniProt Q86Z02); assay: Residual activity of HIPK1 at 1 uM by microplate scintillation counting
[6] = biological target: CDK4/Cyclin D3 (Homo sapiens) (UniProt P11802+P30281); assay: Residual activity of CDK4/Cyclin D3 at 10 uM by microplate scintillation counting; assay type: protein-complex assay
[7] = biological target: ALK tyrosine kinase receptor (Homo sapiens) (UniProt Q9UM73); assay: Residual activity of ALK at 10 uM by microplate scintillation counting
[8] = biological target: T2, Activin receptor type-1 (Homo sapiens) (UniProt Q04771); assay: Residual activity of ACV-R1 at 0.1 uM by microplate scintillation counting
T2 sequence (whole entry): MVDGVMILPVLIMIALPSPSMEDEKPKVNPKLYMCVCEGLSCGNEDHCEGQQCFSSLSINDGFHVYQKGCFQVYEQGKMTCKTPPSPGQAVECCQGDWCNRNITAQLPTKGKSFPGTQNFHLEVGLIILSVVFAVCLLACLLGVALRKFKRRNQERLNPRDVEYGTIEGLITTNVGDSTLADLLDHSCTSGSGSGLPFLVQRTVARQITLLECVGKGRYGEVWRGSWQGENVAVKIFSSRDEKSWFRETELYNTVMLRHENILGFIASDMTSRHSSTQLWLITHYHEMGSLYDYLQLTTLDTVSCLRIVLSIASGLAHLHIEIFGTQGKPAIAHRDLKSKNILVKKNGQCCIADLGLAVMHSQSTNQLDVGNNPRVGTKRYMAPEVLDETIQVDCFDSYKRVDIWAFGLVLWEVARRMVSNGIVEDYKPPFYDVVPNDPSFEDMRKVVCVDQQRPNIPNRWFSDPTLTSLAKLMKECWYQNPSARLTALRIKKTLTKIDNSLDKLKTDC

[9] = biological target: Proto-oncogene tyrosine-protein kinase ROS (Homo sapiens) (UniProt P08922); assay: Residual activity of ROS at 1 uM by microplate scintillation counting
[10] = biological target: T3, Ephrin type-B receptor 2 (Homo sapiens) (UniProt P29323); assay: Residual activity of EPHB2 at 10 uM by microplate scintillation counting
T3 sequence (whole entry): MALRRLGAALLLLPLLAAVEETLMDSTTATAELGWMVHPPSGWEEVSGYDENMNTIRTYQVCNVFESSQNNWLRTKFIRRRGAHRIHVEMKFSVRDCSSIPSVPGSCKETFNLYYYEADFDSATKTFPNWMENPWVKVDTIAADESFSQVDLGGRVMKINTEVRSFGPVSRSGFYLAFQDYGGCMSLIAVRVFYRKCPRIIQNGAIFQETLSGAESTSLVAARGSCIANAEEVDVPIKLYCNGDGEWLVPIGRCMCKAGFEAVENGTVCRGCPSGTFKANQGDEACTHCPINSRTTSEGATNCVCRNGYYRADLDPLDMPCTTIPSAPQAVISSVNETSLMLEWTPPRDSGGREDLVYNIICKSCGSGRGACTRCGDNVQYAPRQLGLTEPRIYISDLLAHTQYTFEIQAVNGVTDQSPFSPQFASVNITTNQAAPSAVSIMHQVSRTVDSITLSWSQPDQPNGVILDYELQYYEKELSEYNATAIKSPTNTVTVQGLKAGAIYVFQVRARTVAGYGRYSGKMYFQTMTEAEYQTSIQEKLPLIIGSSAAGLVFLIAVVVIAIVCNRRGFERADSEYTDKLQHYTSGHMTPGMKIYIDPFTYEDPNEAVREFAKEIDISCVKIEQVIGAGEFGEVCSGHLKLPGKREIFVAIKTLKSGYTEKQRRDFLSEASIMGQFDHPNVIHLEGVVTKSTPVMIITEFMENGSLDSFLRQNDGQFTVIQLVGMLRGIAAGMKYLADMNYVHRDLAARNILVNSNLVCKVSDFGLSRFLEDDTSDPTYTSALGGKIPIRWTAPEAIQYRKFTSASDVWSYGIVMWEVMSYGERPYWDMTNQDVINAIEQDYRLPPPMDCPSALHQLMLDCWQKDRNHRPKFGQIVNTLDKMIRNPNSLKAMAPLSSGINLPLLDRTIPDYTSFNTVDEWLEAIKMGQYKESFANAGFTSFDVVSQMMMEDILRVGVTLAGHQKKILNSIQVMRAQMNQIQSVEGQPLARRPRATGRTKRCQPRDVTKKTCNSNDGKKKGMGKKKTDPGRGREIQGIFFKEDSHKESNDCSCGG

[11] = biological target: SRSF protein kinase 3 (Homo sapiens) (UniProt Q9UPE1); assay: Residual activity of STK23 at 0.1 uM by microplate scintillation counting
[12] = biological target: Cyclin-dependent kinase 4/cyclin D1 (Homo sapiens) (UniProt P11802+P24385); assay: Residual activity of CDK4/Cyclin D1 at 10 uM by microplate scintillation counting; assay type: protein-complex assay
[13] = tested on: Epidermal growth factor receptor (Homo sapiens), P00533 [L858R]; assay: Residual activity of EGFR L858R mutant at 10 uM by microplate scintillation counting

Sequence of Tyrosine-protein kinase CSK (Homo sapiens) (P41240 2-450 limits assumed): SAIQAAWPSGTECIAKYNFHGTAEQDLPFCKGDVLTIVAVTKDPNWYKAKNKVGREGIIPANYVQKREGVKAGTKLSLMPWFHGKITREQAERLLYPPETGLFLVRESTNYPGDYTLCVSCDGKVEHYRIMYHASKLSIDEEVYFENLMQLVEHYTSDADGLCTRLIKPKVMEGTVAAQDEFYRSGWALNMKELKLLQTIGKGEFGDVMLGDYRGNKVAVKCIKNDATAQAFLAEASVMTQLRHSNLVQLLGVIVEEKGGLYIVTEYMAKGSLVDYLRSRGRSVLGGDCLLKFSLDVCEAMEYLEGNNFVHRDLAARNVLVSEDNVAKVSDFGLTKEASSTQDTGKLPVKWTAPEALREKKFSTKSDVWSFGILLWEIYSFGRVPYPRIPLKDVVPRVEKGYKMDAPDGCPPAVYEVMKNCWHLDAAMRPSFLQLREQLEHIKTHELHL
Sequence of SRSF protein kinase 3 (Homo sapiens) (Q9UPE1 whole entry): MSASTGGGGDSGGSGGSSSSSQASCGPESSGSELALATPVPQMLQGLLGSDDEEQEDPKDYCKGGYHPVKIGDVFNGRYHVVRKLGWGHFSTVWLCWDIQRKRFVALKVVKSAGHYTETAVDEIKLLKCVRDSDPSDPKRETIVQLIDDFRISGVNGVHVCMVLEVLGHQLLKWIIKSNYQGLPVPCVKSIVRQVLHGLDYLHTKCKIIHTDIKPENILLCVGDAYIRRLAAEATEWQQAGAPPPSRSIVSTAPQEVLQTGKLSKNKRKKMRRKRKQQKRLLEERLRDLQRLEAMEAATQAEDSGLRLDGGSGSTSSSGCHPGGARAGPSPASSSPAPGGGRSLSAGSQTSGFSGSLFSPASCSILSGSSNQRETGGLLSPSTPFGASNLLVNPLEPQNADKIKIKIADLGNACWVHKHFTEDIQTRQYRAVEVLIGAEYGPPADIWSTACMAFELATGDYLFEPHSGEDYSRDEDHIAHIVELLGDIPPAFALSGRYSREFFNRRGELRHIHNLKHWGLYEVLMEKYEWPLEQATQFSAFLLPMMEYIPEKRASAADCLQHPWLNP
Sequence of Homeodomain-interacting protein kinase 1 (Homo sapiens) (Q86Z02 whole entry, looked up): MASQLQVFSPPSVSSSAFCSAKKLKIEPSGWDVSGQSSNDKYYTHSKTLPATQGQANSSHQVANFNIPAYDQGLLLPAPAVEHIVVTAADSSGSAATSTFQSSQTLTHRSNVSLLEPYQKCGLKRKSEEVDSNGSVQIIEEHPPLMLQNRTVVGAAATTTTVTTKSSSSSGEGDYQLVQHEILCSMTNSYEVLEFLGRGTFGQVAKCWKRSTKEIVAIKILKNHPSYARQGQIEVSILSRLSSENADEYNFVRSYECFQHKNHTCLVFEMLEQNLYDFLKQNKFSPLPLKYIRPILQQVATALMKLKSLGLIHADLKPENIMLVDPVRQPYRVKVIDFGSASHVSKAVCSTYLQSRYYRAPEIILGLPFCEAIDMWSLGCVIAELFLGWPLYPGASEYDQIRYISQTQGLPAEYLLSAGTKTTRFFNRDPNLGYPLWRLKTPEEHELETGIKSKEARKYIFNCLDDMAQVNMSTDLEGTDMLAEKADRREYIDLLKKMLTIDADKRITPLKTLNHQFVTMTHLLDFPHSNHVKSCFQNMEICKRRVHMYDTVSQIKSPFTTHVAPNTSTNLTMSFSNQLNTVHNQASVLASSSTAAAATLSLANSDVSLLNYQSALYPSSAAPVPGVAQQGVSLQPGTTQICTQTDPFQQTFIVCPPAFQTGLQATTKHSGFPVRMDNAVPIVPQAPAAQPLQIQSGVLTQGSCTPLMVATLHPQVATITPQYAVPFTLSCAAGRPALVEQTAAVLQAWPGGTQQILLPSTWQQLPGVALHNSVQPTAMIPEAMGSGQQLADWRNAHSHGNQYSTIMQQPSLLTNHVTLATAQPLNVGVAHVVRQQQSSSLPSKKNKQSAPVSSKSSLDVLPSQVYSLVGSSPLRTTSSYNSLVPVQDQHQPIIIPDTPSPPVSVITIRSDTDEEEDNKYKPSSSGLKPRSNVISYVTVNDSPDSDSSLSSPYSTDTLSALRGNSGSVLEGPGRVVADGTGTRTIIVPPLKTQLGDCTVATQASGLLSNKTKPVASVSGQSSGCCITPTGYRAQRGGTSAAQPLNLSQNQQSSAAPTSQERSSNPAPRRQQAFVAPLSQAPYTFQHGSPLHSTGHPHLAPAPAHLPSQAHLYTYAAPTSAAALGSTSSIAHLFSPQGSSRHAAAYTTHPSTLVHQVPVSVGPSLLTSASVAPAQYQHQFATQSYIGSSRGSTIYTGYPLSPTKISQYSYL
Sequence of Ephrin type-A receptor 4 (Homo sapiens) (P54764 whole entry): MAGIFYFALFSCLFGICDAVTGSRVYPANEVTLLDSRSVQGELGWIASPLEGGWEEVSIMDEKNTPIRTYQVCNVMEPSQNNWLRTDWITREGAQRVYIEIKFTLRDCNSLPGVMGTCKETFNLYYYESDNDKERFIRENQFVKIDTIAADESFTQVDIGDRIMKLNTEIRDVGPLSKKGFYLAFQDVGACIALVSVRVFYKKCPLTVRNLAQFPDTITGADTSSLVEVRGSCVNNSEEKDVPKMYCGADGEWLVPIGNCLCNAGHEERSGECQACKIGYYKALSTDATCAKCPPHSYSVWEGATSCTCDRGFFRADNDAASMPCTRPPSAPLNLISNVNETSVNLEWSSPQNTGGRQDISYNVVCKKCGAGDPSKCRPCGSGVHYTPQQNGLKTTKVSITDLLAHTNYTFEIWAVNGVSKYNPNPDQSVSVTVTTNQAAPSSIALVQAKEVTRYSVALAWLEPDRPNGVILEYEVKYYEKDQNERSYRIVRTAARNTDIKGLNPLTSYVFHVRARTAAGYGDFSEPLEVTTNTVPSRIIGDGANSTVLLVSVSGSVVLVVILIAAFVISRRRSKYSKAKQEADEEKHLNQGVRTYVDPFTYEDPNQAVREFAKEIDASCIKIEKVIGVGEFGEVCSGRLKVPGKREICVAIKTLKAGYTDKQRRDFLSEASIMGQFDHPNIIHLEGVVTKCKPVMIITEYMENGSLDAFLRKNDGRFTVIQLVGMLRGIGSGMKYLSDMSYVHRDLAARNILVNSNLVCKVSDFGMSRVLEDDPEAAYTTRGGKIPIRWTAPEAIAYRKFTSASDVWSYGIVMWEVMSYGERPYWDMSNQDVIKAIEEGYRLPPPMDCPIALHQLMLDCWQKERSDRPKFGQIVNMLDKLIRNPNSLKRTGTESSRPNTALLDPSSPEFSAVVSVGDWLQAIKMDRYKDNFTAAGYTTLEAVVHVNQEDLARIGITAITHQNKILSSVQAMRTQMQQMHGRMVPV
Sequence of Tyrosine-protein kinase FRK (Homo sapiens) (P42685 whole entry): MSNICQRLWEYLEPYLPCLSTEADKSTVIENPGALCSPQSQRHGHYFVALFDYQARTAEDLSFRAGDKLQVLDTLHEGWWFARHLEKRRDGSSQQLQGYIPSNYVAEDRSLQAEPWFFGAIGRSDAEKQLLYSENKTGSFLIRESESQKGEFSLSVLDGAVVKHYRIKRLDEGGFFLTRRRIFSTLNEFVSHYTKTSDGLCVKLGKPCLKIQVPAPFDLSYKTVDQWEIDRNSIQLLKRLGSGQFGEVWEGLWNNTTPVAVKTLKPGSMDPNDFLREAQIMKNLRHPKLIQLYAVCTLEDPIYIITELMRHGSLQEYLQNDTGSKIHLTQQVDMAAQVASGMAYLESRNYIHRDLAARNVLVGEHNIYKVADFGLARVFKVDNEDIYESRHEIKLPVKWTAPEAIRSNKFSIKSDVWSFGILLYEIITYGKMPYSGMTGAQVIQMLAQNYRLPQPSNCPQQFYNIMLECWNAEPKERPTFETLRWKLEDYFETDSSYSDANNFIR

Row | residual activity [1] [%] | residual activity [2] [%] | residual activity [3] [%] | residual activity [4] [%] | residual activity [5] [%] | residual activity [6] [%] | residual activity [7] [%] | residual activity [8] [%] | residual activity [9] [%] | residual activity [10] [%] | residual activity [11] [%] | residual activity [12] [%] | residual activity [13] [%] | Compound
1 | 26 | 17 | 94 | 95 | 77 | 98 | 414 | 91 | 98 | 35 | 80 | 101 | 46 | COc1cc2c(Oc3ccc(-c4nc5ccccc5s4)cc3)ncnc2cc1OCCCN1CCCC1
2 | 34 | 3 | 92 | 90 | 81 | 93 | 180 | 97 | 102 | 16 | 88 | 99 | 24 | COc1cc2c(Oc3ccc(-c4nc5ccccc5s4)cc3F)ncnc2cc1OCCCN1CCN(C)CC1
3 | 36 | 18 | 102 | 84 | 82 | 105 | 329 | 89 | 97 | 18 | 88 | 97 | 22 | COc1cc2c(Oc3ccc(-c4nc5ccccc5s4)cc3)ncnc2cc1OCCCN1CCN(C)CC1
